# Laboratory results as given in patent US9416103B2, “Use of the aminoalkylindole JWH-073-M4 and related compounds as neutral CB1 receptor antagonists for the treatment of alcoholism, drug abuse, obesity, and obesity-related diseases” (The Board of Trustees of the University of Arkansas, priority 2012, dated 2016).
# System: NIH Swiss mice
# Test: Analgesia, tail-flick latency
# Assay type: in vivo, mouse
# Conditions: M4 10 mg/kg i.p. + JWH-018 3 mg/kg i.p.
smiles,measurement,value
CCCCn1cc(C(=O)c2cccc3ccccc23)c2cccc(O)c21 [Compound M4],antagonism of JWH-018-induced analgesia,no difference
